Assay results published in PMC10382584, “Macrocyclization of linear molecules by deep learning to facilitate macrocyclic drug candidates discovery” (Nature Communications, 2023).
Values joined by “and” are separate entries in the source; they are usually repeats but may differ in a detail not shown here. Identical values can stand only once. Like-named read-outs stand apart in the source and are kept apart here.

Experiments:
JAK2 = molecular target: T1, JAK2 (Homo sapiens, UniProt O60674); experiment: JAK2 enzyme assay (Z'-LYTE kinase assay kit); assay type: biochemical
T1 construct: 0.05–0.42 ng JAK2, 2 μM peptide substrate (Tyr06)
T1 sequence (O60674 whole entry): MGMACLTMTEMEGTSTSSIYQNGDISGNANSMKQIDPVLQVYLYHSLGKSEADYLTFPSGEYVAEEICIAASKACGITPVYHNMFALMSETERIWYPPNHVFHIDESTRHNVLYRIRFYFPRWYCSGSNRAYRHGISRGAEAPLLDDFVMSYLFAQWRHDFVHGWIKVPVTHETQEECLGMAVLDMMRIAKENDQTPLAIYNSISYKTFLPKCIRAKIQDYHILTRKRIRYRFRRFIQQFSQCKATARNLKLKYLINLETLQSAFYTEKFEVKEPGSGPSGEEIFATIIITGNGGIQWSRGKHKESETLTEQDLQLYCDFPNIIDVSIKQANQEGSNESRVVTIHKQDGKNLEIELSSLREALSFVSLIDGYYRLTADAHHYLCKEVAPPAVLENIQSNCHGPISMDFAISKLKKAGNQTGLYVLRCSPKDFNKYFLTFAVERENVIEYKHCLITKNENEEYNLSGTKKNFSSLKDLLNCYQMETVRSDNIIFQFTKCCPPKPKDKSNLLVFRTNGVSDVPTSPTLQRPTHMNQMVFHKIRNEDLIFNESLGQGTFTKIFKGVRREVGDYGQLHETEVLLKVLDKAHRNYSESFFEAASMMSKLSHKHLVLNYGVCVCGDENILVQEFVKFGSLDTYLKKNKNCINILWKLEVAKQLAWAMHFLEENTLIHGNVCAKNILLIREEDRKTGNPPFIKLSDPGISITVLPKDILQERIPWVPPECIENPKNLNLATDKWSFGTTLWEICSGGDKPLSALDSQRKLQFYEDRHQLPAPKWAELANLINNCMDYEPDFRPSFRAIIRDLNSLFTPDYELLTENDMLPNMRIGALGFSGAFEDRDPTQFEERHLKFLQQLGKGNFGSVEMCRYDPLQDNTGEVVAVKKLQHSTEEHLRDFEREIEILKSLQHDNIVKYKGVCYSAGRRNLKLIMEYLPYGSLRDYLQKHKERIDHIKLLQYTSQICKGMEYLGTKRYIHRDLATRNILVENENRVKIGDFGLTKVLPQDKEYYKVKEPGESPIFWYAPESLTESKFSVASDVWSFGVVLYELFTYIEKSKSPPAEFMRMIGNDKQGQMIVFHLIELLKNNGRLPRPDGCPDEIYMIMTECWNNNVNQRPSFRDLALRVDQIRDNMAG
Experimental: JAK kinase activity assays were performed using Z’-LYTETM kinase assay kit (Life Technologies, pv4122). […] The mixture was added into the 384-well microplate, shaken gently, and then incubated at room temperature for 1 h. Subsequently, 5 μL development solution was added to the well for incubating another 1 h. Finally, 5 μL stop reagent was added to stop the reaction. […] IC50 values were calculated using GraphPad Prism v8.0.3, and three parallel experiments were performed.

ACVR1B = ACVR1B (Homo sapiens, UniProt P36896); experiment: biochemical; parameters: DiscoveRx KINOMEscan competition binding, percent of DMSO control signal at 100 nM; conditions: read-out: Fig. 4a / Percent Control / Compound 1; percent of DMSO control, competition binding
Sequence of ACVR1B (P36896 whole entry): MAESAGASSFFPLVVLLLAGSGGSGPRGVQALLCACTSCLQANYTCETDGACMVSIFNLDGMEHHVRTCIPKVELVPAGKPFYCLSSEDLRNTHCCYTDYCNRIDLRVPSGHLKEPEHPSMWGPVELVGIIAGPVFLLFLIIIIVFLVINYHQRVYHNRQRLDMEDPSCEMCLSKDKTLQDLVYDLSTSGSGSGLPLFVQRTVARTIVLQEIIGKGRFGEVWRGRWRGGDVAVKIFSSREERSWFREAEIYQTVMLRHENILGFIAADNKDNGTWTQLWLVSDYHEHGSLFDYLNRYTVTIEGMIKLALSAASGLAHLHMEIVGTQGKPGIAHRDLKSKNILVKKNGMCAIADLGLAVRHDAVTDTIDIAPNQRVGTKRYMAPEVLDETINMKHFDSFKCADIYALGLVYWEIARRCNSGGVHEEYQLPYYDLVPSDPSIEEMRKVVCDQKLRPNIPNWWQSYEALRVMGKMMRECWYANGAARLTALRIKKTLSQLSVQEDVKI

AKT1 = AKT1 (Homo sapiens, UniProt P31749); experiment: biochemical; parameters: DiscoveRx KINOMEscan competition binding, percent of DMSO control signal at 100 nM; conditions: read-out: Fig. 4a / Percent Control / Compound 1; percent of DMSO control, competition binding
CSNK2A1 = CSNK2A1 (Homo sapiens, UniProt P68400); experiment: biochemical; parameters: DiscoveRx KINOMEscan competition binding, percent of DMSO control signal at 100 nM; conditions: read-out: Fig. 4a / Percent Control / Compound 1; percent of DMSO control, competition binding
DRAK2 = molecular target: T2, DRAK2 (Homo sapiens, UniProt O94768); experiment: biochemical; parameters: DiscoveRx KINOMEscan competition binding, percent of DMSO control signal at 100 nM; conditions: read-out: Fig. 4a / Percent Control / Compound 1; percent of DMSO control, competition binding
T2 construct: gene STK17B

FGR = FGR (Homo sapiens, UniProt P09769); experiment: biochemical; parameters: DiscoveRx KINOMEscan competition binding, percent of DMSO control signal at 100 nM; conditions: read-out: Fig. 4a / Percent Control / Compound 1; percent of DMSO control, competition binding
FLT3(D835V) = FLT3(D835V) (Homo sapiens, UniProt P36888, D835V); experiment: biochemical; parameters: DiscoveRx KINOMEscan competition binding, percent of DMSO control signal at 100 nM; conditions: read-out: Fig. 4a / Percent Control / Compound 1; percent of DMSO control, competition binding
HIPK1 = HIPK1 (Homo sapiens, UniProt Q86Z02); experiment: biochemical; parameters: DiscoveRx KINOMEscan competition binding, percent of DMSO control signal at 100 nM; conditions: read-out: Fig. 4a / Percent Control / Compound 1; percent of DMSO control, competition binding
KIT(V559D) = KIT(V559D) (Homo sapiens, UniProt P10721, V559D); experiment: biochemical; parameters: DiscoveRx KINOMEscan competition binding, percent of DMSO control signal at 100 nM; conditions: read-out: Fig. 4a / Percent Control / Compound 1; percent of DMSO control, competition binding
MAP3K2 = MAP3K2 (Homo sapiens, UniProt Q9Y2U5); experiment: biochemical; parameters: DiscoveRx KINOMEscan competition binding, percent of DMSO control signal at 100 nM; conditions: read-out: Fig. 4a / Percent Control / Compound 1; percent of DMSO control, competition binding
Sequence of MAP3K2 (Q9Y2U5 whole entry): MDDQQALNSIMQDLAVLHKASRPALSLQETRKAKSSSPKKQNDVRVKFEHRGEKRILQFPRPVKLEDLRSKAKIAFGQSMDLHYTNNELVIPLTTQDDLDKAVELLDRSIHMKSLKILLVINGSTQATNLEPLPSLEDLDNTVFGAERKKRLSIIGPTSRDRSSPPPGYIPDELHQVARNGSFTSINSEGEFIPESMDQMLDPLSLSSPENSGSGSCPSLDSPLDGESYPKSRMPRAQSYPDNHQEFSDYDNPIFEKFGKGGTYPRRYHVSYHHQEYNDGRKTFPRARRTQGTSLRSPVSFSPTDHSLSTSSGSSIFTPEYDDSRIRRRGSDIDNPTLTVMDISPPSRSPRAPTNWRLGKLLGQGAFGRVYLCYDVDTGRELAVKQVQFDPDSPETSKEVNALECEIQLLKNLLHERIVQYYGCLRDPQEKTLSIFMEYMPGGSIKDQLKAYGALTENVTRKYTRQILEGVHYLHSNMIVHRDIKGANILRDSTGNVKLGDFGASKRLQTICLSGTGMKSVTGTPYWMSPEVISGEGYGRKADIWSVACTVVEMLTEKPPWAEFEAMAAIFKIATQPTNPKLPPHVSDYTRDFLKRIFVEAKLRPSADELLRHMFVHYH

PHKG1 = PHKG1 (Homo sapiens, UniProt Q16816); experiment: biochemical; parameters: DiscoveRx KINOMEscan competition binding, percent of DMSO control signal at 100 nM; conditions: read-out: Fig. 4a / Percent Control / Compound 1; percent of DMSO control, competition binding
PIK3C2G = PIK3C2G (Homo sapiens, UniProt O75747); experiment: biochemical; parameters: DiscoveRx KINOMEscan competition binding, percent of DMSO control signal at 100 nM; conditions: read-out: Fig. 4a / Percent Control / Compound 1; percent of DMSO control, competition binding
PIK3CA(E542K) = PIK3CA(E542K) (Homo sapiens, UniProt P42336, E542K); experiment: biochemical; parameters: DiscoveRx KINOMEscan competition binding, percent of DMSO control signal at 100 nM; conditions: read-out: Fig. 4a / Percent Control / Compound 1; percent of DMSO control, competition binding
Sequence of PIK3CA(E542K) (P42336 whole entry E542K): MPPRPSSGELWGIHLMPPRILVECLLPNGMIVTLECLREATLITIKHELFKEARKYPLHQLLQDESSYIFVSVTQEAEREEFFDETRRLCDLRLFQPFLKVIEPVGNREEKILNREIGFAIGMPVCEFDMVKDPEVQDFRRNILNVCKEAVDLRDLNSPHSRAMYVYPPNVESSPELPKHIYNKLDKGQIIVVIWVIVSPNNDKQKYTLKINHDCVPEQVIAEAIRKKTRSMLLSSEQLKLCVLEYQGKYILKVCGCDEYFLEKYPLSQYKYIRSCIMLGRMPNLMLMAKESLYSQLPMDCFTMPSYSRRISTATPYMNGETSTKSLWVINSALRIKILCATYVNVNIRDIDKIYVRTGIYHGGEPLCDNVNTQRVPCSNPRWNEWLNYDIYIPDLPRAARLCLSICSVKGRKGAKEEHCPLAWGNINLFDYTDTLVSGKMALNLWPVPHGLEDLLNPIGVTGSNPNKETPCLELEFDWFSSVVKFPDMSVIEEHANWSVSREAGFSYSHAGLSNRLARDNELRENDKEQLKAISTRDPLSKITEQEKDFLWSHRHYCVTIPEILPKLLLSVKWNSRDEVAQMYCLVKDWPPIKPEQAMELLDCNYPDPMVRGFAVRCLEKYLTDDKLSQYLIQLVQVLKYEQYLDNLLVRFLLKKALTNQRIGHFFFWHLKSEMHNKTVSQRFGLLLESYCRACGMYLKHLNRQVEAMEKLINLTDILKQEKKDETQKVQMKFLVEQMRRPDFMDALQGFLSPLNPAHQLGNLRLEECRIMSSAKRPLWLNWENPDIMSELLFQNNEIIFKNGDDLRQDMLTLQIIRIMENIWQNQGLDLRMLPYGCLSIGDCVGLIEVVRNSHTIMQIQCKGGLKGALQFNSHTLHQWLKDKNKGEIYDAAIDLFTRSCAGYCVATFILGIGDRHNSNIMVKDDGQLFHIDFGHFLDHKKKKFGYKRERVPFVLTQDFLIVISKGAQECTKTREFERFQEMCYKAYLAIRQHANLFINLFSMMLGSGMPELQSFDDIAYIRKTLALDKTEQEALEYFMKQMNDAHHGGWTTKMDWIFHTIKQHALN

RET(V804M) = RET(V804M) (Homo sapiens, UniProt P07949, V804M); experiment: biochemical; parameters: DiscoveRx KINOMEscan competition binding, percent of DMSO control signal at 100 nM; conditions: read-out: Fig. 4a / Percent Control / Compound 1; percent of DMSO control, competition binding
Sequence of RET(V804M) (P07949 whole entry V804M): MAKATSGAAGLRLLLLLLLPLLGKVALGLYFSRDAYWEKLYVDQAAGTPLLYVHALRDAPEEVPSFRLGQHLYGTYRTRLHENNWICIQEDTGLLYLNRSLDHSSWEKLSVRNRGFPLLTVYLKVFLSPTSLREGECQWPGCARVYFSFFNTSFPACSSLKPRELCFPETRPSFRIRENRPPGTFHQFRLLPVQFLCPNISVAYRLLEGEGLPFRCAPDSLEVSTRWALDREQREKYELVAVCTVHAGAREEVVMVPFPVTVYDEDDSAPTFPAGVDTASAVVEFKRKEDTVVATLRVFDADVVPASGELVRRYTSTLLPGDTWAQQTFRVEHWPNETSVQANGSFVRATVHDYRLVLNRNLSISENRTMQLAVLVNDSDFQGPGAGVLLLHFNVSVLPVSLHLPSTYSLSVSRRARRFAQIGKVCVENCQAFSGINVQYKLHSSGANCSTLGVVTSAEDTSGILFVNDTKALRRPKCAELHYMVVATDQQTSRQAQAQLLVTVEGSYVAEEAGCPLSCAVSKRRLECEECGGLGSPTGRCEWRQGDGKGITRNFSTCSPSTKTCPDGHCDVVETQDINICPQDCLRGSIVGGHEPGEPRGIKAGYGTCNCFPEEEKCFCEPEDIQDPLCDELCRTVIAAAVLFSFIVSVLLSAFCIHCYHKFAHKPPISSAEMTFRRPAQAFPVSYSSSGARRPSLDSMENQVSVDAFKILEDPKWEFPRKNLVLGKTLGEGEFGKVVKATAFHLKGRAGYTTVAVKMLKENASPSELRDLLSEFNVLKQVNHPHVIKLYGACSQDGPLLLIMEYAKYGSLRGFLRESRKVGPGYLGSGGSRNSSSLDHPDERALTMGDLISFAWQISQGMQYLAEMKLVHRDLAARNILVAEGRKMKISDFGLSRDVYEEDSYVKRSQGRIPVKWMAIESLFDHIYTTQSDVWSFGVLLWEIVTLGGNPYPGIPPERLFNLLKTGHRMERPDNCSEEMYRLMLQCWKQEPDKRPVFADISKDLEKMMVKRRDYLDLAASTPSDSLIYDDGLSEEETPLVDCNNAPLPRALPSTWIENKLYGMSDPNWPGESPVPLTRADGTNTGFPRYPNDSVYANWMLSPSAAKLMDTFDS

ROCK1 = ROCK1 (Homo sapiens, UniProt Q13464); experiment: biochemical; parameters: DiscoveRx KINOMEscan competition binding, percent of DMSO control signal at 100 nM; conditions: read-out: Fig. 4a / Percent Control / Compound 1; percent of DMSO control, competition binding
S6K1 = molecular target: T3, S6K1 (Homo sapiens, UniProt P23443); experiment: biochemical; parameters: DiscoveRx KINOMEscan competition binding, percent of DMSO control signal at 100 nM; conditions: read-out: Fig. 4a / Percent Control / Compound 1; percent of DMSO control, competition binding
T3 construct: gene RPS6KB1

SRPK3 = SRPK3 (Homo sapiens, UniProt Q9UPE1); experiment: biochemical; parameters: DiscoveRx KINOMEscan competition binding, percent of DMSO control signal at 100 nM; conditions: read-out: Fig. 4a / Percent Control / Compound 1; percent of DMSO control, competition binding
STK35 = STK35 (Homo sapiens, UniProt Q8TDR2); experiment: biochemical; parameters: DiscoveRx KINOMEscan competition binding, percent of DMSO control signal at 100 nM; conditions: read-out: Fig. 4a / Percent Control / Compound 1; percent of DMSO control, competition binding
TSSK1B = TSSK1B (Homo sapiens, UniProt Q9BXA7); experiment: biochemical; parameters: DiscoveRx KINOMEscan competition binding, percent of DMSO control signal at 100 nM; conditions: read-out: Fig. 4a / Percent Control / Compound 1; percent of DMSO control, competition binding
Sequence of TSSK1B (Q9BXA7 whole entry): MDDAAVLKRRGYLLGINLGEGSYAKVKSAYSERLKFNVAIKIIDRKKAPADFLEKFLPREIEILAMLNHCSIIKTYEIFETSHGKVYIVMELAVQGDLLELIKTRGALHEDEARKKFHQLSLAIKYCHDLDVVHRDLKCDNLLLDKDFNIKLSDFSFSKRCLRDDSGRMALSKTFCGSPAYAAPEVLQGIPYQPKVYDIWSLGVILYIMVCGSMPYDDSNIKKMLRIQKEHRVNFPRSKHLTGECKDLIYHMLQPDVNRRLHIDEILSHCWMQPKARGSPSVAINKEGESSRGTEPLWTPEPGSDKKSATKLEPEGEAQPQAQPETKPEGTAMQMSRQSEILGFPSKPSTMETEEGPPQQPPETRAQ

[1] = Chemical stability in DMSO stock solution (HPLC purity); assay type: physicochemical; conditions: mean±SD
Excerpt: compounds were formulated in the solubilizing vehicle (5% DMSO/30% PEG400/65% […]
safety to the mice in the test.
6. What was the sample dissolved in for the in vitro and in vivo experiments? Response: The solvent information for the in vitro and in vivo experiments has been added in the revised manuscript. […]
7. Was the stability of the different compounds assessed and compared to Fedratinib? This is generally a critical point in macrocyclic studies. […]
in DMSO stock solution. Test compounds were incubated at room temperature and 60 ℃, respectively, for 72 h, and their purities (%) were determined using HPLC equipped with a CORTECS C18 column (4.6*50 mm, 2.7 μm particle size) and a UV/VIS detector setting of λ=210 nm. All co mpounds were eluted with the two solvent systems ([…] as organic phase in Method I and CH3OH as organic phase in Method II) at a flow rate of 0.3 ml/min. Each experiment repeated for three times and the results are represented as mean±SD.
Ta b e l R 1 . Comparison of chemical stability of different compounds at room temperature and 60 ℃, respectively.

[2] = JAK2, 25 μM ATP, mean ± SD, n = 3, read-out: Enzyme Inhibitory Activity (IC50)
[3] = JAK2 enzyme, mean of 3 replicates, read-out: IC50/μM mean, enzyme inhibitory activity
[4] = JAK2 enzyme, mean ± SD of 3 replicates, read-out: IC50/μM mean ± SD, enzyme inhibitory activity
[5] = JAK2 enzyme, single-replicate fits (replicates 1-3), read-out: IC50/μM (individual replicates), enzyme inhibitory activity

## Cc1cnc2nc1Nc1cccc(c1)COCc1cc(ccc1OCCN1CCCC1)N2 [Compound 1]
JAK2; [2]
  IC50: 0.07 µM
JAK2; [3]
  IC50: 0.07 µM
JAK2; [4]
  IC50: 0.07 ± 0.006 µM
JAK2; [5]
  IC50: 0.072 µM and 0.064 µM and 0.075 µM
ACVR1B
  remaining binding at 0.1 µM: 100%
AKT1
  remaining binding at 0.1 µM: 100%
CSNK2A1
  remaining binding at 0.1 µM: 57%
DRAK2
  remaining binding at 0.1 µM: 100%
FGR
  remaining binding at 0.1 µM: 100%
FLT3(D835V)
  remaining binding at 0.1 µM: 3.3%
HIPK1
  remaining binding at 0.1 µM: 66%
KIT(V559D)
  remaining binding at 0.1 µM: 51%
MAP3K2
  remaining binding at 0.1 µM: 50%
PHKG1
  remaining binding at 0.1 µM: 87%
PIK3C2G
  remaining binding at 0.1 µM: 80%
PIK3CA(E542K)
  remaining binding at 0.1 µM: 89%
RET(V804M)
  remaining binding at 0.1 µM: 80%
ROCK1
  remaining binding at 0.1 µM: 88%
S6K1
  remaining binding at 0.1 µM: 98%
SRPK3
  remaining binding at 0.1 µM: 82%
STK35
  remaining binding at 0.1 µM: 92%
TSSK1B
  remaining binding at 0.1 µM: 92%

## Cc1cnc2nc1Nc1cccc(c1)COCC=CCOCc1cc(ccc1OCCN1CCCC1)N2 [Compound 3]
JAK2; [2]
  IC50: 0.006 µM
JAK2; [3]
  IC50: 0.006 µM
JAK2; [4]
  IC50: 0.006 ± 0.001 µM
JAK2; [5]
  IC50: 0.00662 µM and 0.00532 µM and 0.00569 µM
[1]; 60 ℃, 0 h
  purity after incubation in DMSO stock solution: 99.78±0.07%
[1]; 60 ℃, 2 h
  purity after incubation in DMSO stock solution: 99.46±0.04%
[1]; 60 ℃, 24 h
  purity after incubation in DMSO stock solution: 99.64±0.04%
[1]; 60 ℃, 48 h
  purity after incubation in DMSO stock solution: 99.66±0.06%
[1]; 60 ℃, 72 h
  purity after incubation in DMSO stock solution: 99.78±0.03%
[1]; Room Temperature, 0 h
  purity after incubation in DMSO stock solution: 99.68±0.05%
[1]; Room Temperature, 2 h
  purity after incubation in DMSO stock solution: 99.77±0.01%
[1]; Room Temperature, 24 h
  purity after incubation in DMSO stock solution: 99.68±0.07%
[1]; Room Temperature, 48 h
  purity after incubation in DMSO stock solution: 99.63±0.02%
[1]; Room Temperature, 72 h
  purity after incubation in DMSO stock solution: 99.64±0.10%

## Cc1cnc(Nc2ccc(OCCN3CCCC3)cc2)nc1Nc1cccc(S(=O)(=O)NC(C)(C)C)c1 [Fedratinib]
[1]; 60 ℃, 0 h
  purity after incubation in DMSO stock solution: 98.91±0.10%
[1]; 60 ℃, 2 h
  purity after incubation in DMSO stock solution: 98.91±0.10%
[1]; 60 ℃, 24 h
  purity after incubation in DMSO stock solution: 98.89±0.17%
[1]; 60 ℃, 48 h
  purity after incubation in DMSO stock solution: 100.00±0.00%
[1]; 60 ℃, 72 h
  purity after incubation in DMSO stock solution: 98.96±0.15%
[1]; Room Temperature, 0 h
  purity after incubation in DMSO stock solution: 99.36±0.06%
[1]; Room Temperature, 2 h
  purity after incubation in DMSO stock solution: 99.11±0.14%
[1]; Room Temperature, 24 h
  purity after incubation in DMSO stock solution: 99.99±0.00%
[1]; Room Temperature, 48 h
  purity after incubation in DMSO stock solution: 99.08±0.02%
[1]; Room Temperature, 72 h
  purity after incubation in DMSO stock solution: 99.57±0.06%
